Experimental data: paper doi:10.1101/2023.11.24.568596v1 (biorxiv, 2023)

Assays:
Conditions in all cases: binder
NQO2A = target: T1, NQO2A (Homo sapiens, UniProt P16083)
T1 sequence (P16083 1-231): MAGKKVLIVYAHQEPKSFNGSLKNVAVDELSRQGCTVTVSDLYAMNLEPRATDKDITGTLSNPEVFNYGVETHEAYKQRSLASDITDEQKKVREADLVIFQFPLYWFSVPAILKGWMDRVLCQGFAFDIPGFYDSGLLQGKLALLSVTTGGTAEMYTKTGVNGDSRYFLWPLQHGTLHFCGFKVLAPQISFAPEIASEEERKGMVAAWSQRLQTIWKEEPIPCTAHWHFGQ

PIM3 = PIM3 (Homo sapiens, UniProt Q86V86)
DRAK2 = target: T2, DRAK2 (Homo sapiens, UniProt O94768)
T2 sequence (O94768 1-372): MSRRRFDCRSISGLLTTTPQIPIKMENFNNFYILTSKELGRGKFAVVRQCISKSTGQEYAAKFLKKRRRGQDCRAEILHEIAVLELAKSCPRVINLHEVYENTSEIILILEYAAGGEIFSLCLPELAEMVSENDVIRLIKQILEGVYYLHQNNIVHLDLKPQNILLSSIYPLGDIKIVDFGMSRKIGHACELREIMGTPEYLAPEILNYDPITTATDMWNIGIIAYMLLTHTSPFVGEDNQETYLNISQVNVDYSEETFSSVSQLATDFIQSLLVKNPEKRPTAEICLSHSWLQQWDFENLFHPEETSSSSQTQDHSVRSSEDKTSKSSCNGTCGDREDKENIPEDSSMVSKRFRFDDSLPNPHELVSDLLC

CDKL1 = CDKL1 (Homo sapiens, UniProt Q00532)
CDKL1, sequence (Q00532 whole entry): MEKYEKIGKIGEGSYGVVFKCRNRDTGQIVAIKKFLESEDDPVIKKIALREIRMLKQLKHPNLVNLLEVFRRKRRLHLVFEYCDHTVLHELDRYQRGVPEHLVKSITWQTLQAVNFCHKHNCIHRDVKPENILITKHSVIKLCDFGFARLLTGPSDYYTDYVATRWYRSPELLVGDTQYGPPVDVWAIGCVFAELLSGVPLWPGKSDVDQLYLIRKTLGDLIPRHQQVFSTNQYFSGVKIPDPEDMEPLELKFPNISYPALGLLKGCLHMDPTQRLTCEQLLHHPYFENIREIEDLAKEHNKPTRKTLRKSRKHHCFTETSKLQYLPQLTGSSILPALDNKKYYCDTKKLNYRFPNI

MARK4 = target: T3, MARK4 (Homo sapiens, UniProt Q96L34)
T3 sequence (Q96L34 1-752): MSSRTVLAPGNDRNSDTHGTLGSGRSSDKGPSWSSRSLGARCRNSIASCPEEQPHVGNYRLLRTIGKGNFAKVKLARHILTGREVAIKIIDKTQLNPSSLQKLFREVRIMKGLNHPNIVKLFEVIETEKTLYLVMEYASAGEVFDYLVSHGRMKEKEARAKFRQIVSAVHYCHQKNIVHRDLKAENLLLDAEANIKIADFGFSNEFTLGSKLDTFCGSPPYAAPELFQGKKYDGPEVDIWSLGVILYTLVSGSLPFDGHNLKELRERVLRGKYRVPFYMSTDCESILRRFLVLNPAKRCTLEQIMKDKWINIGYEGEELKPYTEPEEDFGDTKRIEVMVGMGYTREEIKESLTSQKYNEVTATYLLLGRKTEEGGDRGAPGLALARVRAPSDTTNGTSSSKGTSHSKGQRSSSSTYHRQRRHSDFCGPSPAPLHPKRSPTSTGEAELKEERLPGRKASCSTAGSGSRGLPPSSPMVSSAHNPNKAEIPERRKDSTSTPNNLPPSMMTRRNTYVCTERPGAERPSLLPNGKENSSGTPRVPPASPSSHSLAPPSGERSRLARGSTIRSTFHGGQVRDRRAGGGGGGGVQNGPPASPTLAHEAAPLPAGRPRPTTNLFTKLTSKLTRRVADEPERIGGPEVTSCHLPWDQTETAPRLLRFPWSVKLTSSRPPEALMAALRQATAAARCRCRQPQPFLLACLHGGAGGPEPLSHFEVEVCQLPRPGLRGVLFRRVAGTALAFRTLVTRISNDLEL

PCTAIRE1 = PCTAIRE1 (Homo sapiens, UniProt Q00536)
PCTAIRE1, sequence (Q00536 whole entry): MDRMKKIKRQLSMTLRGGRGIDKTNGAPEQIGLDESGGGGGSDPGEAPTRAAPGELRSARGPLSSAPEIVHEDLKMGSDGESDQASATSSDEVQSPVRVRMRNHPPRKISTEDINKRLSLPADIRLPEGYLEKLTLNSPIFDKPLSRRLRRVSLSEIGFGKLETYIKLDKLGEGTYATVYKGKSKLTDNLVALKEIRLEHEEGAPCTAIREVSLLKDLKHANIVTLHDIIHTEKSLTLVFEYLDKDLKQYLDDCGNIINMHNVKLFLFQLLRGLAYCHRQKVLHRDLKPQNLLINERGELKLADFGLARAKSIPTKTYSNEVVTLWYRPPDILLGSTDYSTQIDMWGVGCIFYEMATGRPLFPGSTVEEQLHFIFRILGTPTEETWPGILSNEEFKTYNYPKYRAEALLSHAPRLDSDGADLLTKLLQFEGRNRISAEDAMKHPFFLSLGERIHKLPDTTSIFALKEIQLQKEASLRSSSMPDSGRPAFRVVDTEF

NDR2 = NDR2 (Homo sapiens, UniProt Q9Y2H1)
NDR2, sequence (Q9Y2H1 whole entry): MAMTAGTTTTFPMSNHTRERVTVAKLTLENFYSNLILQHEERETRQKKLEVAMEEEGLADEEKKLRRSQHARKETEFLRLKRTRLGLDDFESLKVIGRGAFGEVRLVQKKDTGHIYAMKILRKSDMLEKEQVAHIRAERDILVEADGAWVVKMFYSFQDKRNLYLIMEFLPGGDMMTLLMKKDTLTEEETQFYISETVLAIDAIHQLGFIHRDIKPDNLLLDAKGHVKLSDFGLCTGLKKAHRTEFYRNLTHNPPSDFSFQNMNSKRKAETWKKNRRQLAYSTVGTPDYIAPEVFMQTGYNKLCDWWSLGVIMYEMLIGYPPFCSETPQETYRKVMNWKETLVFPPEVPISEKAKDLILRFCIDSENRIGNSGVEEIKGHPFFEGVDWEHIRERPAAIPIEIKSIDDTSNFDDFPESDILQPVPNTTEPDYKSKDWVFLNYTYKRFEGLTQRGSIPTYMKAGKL

GPRK5 = GPRK5 (Homo sapiens, UniProt P34947)
GPRK5, sequence (P34947 whole entry): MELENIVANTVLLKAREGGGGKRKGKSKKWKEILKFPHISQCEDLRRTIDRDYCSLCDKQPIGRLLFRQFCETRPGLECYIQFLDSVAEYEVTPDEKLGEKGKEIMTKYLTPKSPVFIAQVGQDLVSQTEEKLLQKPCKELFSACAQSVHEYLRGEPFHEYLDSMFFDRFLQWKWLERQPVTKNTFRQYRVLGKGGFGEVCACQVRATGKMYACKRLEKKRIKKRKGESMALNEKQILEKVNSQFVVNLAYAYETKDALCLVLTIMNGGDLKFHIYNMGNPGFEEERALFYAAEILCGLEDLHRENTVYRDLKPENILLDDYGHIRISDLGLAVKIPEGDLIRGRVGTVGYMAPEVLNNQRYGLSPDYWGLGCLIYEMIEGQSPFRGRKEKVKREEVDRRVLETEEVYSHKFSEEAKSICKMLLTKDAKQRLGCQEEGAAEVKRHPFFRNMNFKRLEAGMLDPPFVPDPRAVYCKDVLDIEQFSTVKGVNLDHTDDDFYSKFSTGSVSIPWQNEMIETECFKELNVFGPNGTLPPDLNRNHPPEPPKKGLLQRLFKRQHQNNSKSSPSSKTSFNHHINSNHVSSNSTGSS

MELK = MELK (Homo sapiens, UniProt Q14680)
MELK, sequence (Q14680 whole entry): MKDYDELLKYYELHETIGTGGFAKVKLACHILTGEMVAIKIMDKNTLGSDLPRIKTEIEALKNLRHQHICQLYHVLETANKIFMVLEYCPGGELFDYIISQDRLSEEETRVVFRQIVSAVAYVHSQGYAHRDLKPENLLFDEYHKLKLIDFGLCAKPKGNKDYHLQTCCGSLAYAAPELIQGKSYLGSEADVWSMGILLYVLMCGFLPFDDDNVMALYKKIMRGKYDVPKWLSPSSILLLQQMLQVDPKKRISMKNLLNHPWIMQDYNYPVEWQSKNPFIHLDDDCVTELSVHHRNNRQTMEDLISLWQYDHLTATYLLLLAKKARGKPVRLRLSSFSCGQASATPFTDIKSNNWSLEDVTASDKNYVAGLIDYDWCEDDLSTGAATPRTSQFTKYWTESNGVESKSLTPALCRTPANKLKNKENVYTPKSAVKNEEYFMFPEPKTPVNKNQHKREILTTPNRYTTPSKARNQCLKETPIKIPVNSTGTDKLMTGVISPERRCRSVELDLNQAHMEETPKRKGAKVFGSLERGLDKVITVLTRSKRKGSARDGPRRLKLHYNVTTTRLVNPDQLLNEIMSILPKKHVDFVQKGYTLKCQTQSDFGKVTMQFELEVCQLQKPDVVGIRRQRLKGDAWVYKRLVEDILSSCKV

JNK2 = JNK2 (Homo sapiens, UniProt P45984)
JNK2, sequence (P45984 whole entry): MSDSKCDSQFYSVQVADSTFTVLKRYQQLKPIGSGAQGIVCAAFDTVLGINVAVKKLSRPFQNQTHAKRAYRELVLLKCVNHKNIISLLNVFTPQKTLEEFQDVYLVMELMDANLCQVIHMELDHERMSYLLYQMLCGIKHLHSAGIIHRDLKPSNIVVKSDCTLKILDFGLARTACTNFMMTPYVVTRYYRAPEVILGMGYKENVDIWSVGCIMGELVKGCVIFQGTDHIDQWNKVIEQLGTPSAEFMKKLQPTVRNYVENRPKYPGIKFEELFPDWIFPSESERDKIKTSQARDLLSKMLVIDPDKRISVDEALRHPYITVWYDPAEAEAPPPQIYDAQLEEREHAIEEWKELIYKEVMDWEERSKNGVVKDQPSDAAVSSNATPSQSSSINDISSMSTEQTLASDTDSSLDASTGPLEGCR

MST1 = target: T4, MST1 (Homo sapiens, UniProt Q13043)
T4 sequence (Q13043 1-487): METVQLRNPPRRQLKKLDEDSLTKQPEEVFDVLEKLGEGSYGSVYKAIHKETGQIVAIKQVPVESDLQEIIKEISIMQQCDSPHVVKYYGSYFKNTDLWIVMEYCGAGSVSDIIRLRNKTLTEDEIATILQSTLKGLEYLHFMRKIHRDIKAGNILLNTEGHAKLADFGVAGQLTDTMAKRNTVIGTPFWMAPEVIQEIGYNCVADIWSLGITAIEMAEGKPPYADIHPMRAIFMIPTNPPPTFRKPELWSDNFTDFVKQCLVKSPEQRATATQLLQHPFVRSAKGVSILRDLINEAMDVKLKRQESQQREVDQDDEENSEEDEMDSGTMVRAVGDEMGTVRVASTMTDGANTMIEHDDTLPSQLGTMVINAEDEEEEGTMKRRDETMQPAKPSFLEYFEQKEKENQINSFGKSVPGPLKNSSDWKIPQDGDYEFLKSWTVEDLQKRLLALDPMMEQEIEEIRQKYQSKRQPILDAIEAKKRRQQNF

Compound: Cc1cccc(-c2ccc(-c3cc4cnc(NCCCN5CCCC5=O)nc4n(CCCCN)c3=O)c(Cl)c2)n1 [compound 27, MR30]
- ΔTm MR30 (27) (NQO2A): 0.5 °C
- ΔTm MR30 (27) (PIM3): -2.7 °C
- ΔTm MR30 (27) (DRAK2): 0.8 °C
- ΔTm MR30 (27) (CDKL1): 0.9 °C
- ΔTm MR30 (27) (MARK4): 3.8 °C
- ΔTm MR30 (27) (PCTAIRE1): 2.9 °C
- ΔTm MR30 (27) (NDR2): 1.5 °C
- ΔTm MR30 (27) (GPRK5): -1.1 °C
- ΔTm MR30 (27) (MELK): 5.8 °C
- ΔTm MR30 (27) (JNK2): 0.7 °C
- ΔTm MR30 (27) (MST1): -1.0 °C

Compound: Cc1cccc(-c2ccc(-c3cc4cnc(Nc5cc(C(F)(F)F)ccc5C)nc4n(CCCCN)c3=O)c(Cl)c2)n1 [compound 28, 8-(4-Aminobutyl)-6-(2-chloro-4-(6-methylpyridin-2-yl)phenyl)-2-((2-methyl-5-(trifluoromethyl)phenyl)amino)pyrido[2,3-d]pyrimidin-7(8H)-one]
- ΔTm 28 (NQO2A): -0.7 °C
- ΔTm 28 (PIM3): 0.5 °C
- ΔTm 28 (DRAK2): 8.4 °C
- ΔTm 28 (CDKL1): 0.7 °C
- ΔTm 28 (MARK4): 2.2 °C
- ΔTm 28 (PCTAIRE1): 1.1 °C
- ΔTm 28 (NDR2): 7.1 °C
- ΔTm 28 (GPRK5): -0.6 °C
- ΔTm 28 (MELK): 1.8 °C
- ΔTm 28 (JNK2): 0.0 °C
- ΔTm 28 (MST1): -1.6 °C

Compound: Cc1cccc(-c2ccc(-c3cc4cnc(NCCCN5CCNCC5)nc4n(CCCCN)c3=O)c(Cl)c2)n1 [compound 29, 8-(4-Aminobutyl)-6-(2-chloro-4-(6-methylpyridin-2-yl)phenyl)-2-((3-(piperazin-1-yl)propyl)amino)pyrido[2,3-d]pyrimidin-7(8H)-one]
- ΔTm 29 (NQO2A): 0.3 °C
- ΔTm 29 (PIM3): 0.0 °C
- ΔTm 29 (DRAK2): 4.6 °C
- ΔTm 29 (CDKL1): 0.5 °C
- ΔTm 29 (MARK4): 4.8 °C
- ΔTm 29 (PCTAIRE1): 2.5 °C
- ΔTm 29 (NDR2): 4.9 °C
- ΔTm 29 (GPRK5): -0.4 °C
- ΔTm 29 (MELK): 6.5 °C
- ΔTm 29 (JNK2): -0.1 °C
- ΔTm 29 (MST1): -0.5 °C

Compound: Cc1cccc(-c2ccc(-c3cc4cnc(Nc5ccc(CCCO)cc5)nc4n(CCCCN)c3=O)c(Cl)c2)n1 [compound 30, 8-(4-Aminobutyl)-6-(2-chloro-4-(6-methylpyridin-2-yl)phenyl)-2-((4-(3-hydroxypropyl)phenyl)amino)pyrido[2,3-d]pyrimidin-7(8H)-one]
- ΔTm 30 (NQO2A): -0.2 °C
- ΔTm 30 (PIM3): -0.8 °C
- ΔTm 30 (DRAK2): 12.3 °C
- ΔTm 30 (CDKL1): 1.6 °C
- ΔTm 30 (MARK4): 9.5 °C
- ΔTm 30 (PCTAIRE1): 5.0 °C
- ΔTm 30 (NDR2): 10.7 °C
- ΔTm 30 (GPRK5): -0.9 °C
- ΔTm 30 (MELK): 7.8 °C
- ΔTm 30 (JNK2): 4.3 °C
- ΔTm 30 (MST1): 1.7 °C

Compound: Cc1cccc(-c2ccc(-c3cc4cnc(Nc5ccc(O)cc5)nc4n(CCCCN)c3=O)c(Cl)c2)n1 [compound 31, 8-(4-Aminobutyl)-6-(2-chloro-4-(6-methylpyridin-2-yl)phenyl)-2-((4-hydroxyphenyl)amino) pyrido[2,3-d]pyrimidin-7(8H)-one]
- ΔTm 31 (NQO2A): -0.3 °C
- ΔTm 31 (PIM3): 4.5 °C
- ΔTm 31 (DRAK2): 11.7 °C
- ΔTm 31 (CDKL1): 2.1 °C
- ΔTm 31 (MARK4): 10.4 °C
- ΔTm 31 (PCTAIRE1): 5.0 °C
- ΔTm 31 (NDR2): 9.9 °C
- ΔTm 31 (GPRK5): -0.2 °C
- ΔTm 31 (MELK): 6.5 °C
- ΔTm 31 (JNK2): 4.2 °C
- ΔTm 31 (MST1): 2.0 °C

Compound: Cc1cccc(-c2ccc(-c3cc4cnc(Nc5ccc(C)c(O)c5)nc4n(CCCCN)c3=O)c(Cl)c2)n1 [compound 32, 8-(4-Aminobutyl)-6-(2-chloro-4-(6-methylpyridin-2-yl)phenyl)-2-((3-hydroxy-4-methylphenyl)amino)pyrido[2,3-d]pyrimidin-7(8H)-one]
- ΔTm 32 (NQO2A): -0.2 °C
- ΔTm 32 (PIM3): 1.5 °C
- ΔTm 32 (DRAK2): 12.2 °C
- ΔTm 32 (CDKL1): 1.9 °C
- ΔTm 32 (MARK4): 9.9 °C
- ΔTm 32 (PCTAIRE1): 4.8 °C
- ΔTm 32 (NDR2): 10.1 °C
- ΔTm 32 (GPRK5): -0.4 °C
- ΔTm 32 (MELK): 7.2 °C
- ΔTm 32 (JNK2): 3.3 °C
- ΔTm 32 (MST1): 1.6 °C
